# Results reported in patent US7378387B2, “Method of suppressing immune response by reducing intracellular content of glutathione in macrophages and monocytes” (Ajinomoto Co., Inc., priority 1997, dated 2008).
# Tests used:
# [1] = test system: adjuvant-induced arthritis; assay: Adjuvant-induced arthritis (AA) in rats, joint swelling (Examples 18 and 19); assay type: in vivo, Lewis rats
# Protocol: Adjuvant-induced arthritis was triggered in Lewis rats in a conventional manner; and the effects of chemical agents were examined in the animals. Adjuvant-induced arthritis is well known as an experimental arthritis inducible in rats [Taurog et al., Meth. Enzymol. 162, 339-355 (1988)]. […] An adjuvant is administered at 1 mg/0.1 ml per rate at a site of caudal root. The edema reaches its peak about 2 to 3 weeks after the administration of the adjuvant. The edema is triggered by inflammatory infiltration of monocytes. Swollen joints are measured with a micrometer every day; comparing the diameters of the joints prior to and after adjuvant administration and after initiation of the treatment with chemical agents with the diameters of the joints in the control group, the effects of the chemical agents were expressed as the ratio in % of joint swelling in the experimental groups to joint swelling in the control group. The effects were determined on day 15 after adjuvant administration. The chemical agents were given, starting the day next to the day of adjuvant administration, and every 3 days thereafter.
# A single dose is 1 mg/kg for (NAC)2 and (NAC-OMe)2; 100 mg/kg for NAC; and 0.1 mg/kg for lentinan.
# Adjuvant-induced arthritis was induced in Lewis rats in a conventional manner. In the same manner as in Example 11, the effects of chemical agents were examined in these rats. The conditions were the same as described above.
# [2] = test system: spontaneous onset of insulin-dependent diabetes mellitus; assay: Onset of diabetes mellitus in NOD mice dosed at age 3 to 6 and 9 to 11 weeks (Example 24); assay type: in vivo; conditions: route not given, 0.1 mg/kg; 15 times in total; judged on week 22; saline 60
# Text: (§1) NOD mice purchased from Nippon Clair, Co. were naturally mated together. Among the off spring mice, a colony of NOD mice with a high frequency of the spontaneous onset of insulin-dependent diabetes mellitus was established. Female NOD mice from the colony were used for the present experiment. […] Urine glucose was detected, using Uropaper (BM Test Glucose 5000, manufactured by Yamanouchi Pharmaceuticals, Co. Ltd.). The onset was judged on week 22.
# [3] = test system: spontaneous onset of insulin-dependent diabetes mellitus; assay: Onset of diabetes mellitus in NOD mice dosed at age 3 to 6 weeks (Example 23); assay type: in vivo; conditions: intraperitoneal, three times per week, nine times
# Protocol: as §1, with “Chemical agents were administered intraperitoneally, unless otherwise stated. […] (NAC)2 and (NAC-OMe)2 were at a single dose of 20 μg/animal; and NAC and GSHOEt were at a single dose of 2 μg/animal; and a single dose of lentinan” for “The onset”, “0.1 mg/kg.” for “judged on week 22.”
# [4] = test system: spontaneous onset of insulin-dependent diabetes mellitus; assay: Onset of diabetes mellitus in NOD mice dosed at age 9 to 11 weeks (Example 25); assay type: in vivo; conditions: route not given, nine times, judged on week 22, saline 67
# Text: NOD mice purchased from Nippon Clair, Co. were naturally mated together. Among the off spring mice, a colony of NOD mice with a high frequency of the spontaneous onset of insulin-dependent diabetes mellitus was established. Female NOD mice from the colony were used for the present experiment. Chemical agents were orally or intraperitoneally administered to the NOD mice aged 9 to 11 weeks three times per week, in total nine times; and based on the test results of urine glucose, positive or negative, the onset of diabetes mellitus was followed once per week. Urine glucose was detected, using Uropaper (BM Test Glucose 5000, manufactured by Yamanouchi Pharmaceuticals, Co. Ltd.). The onset was judged on week 22; the doses were the same as in Example 24.
# [5] = test system: peritoneal exudate cells (macrophages); assay: Induction of oxidative and reductive macrophages, monochlorobimane/ACAS (Example 1); assay type: in vivo; conditions: LPS 20 μg or lentinan 100 μg three times every two days into the abdominal cavity of a mouse
# Protocol: These were clarified by adhering peritoneal exudate cells to the plastic surface, then reacting the same with 10 μM of monochlorobimane at 37° C. for 30 minutes and conducting analysis with Adherent Cell Analyzing System (ACAS). The increase in the amounts of oxidative macrophages can easily be measured visually from the fact that almost no reaction product is observed, that is, gray or blue image is obtained, and the increase in the amounts of reductive macrophages from the fact that the red or yellow image is obtained, respectively.
# IL-12 = IL-12 production by MΦ induced by intraperitoneal injection of substances (Example 7); assay type: in vivo, mouse
# Protocol: The amount of IL-12 was determined through bioassay using cells of human T cell strain 2D6 (J. Leukocyte Biology, vol. 61, p. 346, 1997).
# 2D6 cells which had been incubated in an RPMI 1640 medium containing 500 pg/ml of recombinant human IL-12, 50 μM of 2-mercaptoethanol and 10% FCS (fetal calf serum) were moved to a tube, and centrifugally washed three times with the above-mentioned medium without IL-12 and cell density was adjusted to 1×10^5/ml. The cell suspension was added in an amount of 100 μl each to a 96-well flat bottom plate containing a sample serially diluted in advance with an RPMI 1640 medium containing 50 μM of 2-mercaptoethanol and 10% FCS in an amount of 100 μl each. Subsequently, the mixture was charged into a 5% […] incubator of 37° C., and incubated for 48 hours. For final 6 hours, ^3H-TdR was pulsed (a substance adjusted to 370 kBq/ml in an RPMI 1640 medium containing 50 μM of 2-mercaptoethanol and 10% FCS was added in an amount of 50 μl each). The cells a harvested, and the radioactivity was measured using a β counter (Matrix 96, supplied by Packard).
# It was examined whether there is a difference in the IL-12 production between LNT-induced MΦ and LPS-induced MΦ. […] Next, the same analysis was conducted using MΦ induced by intraperitoneally injecting substances for changing the GSH content in cells.
substance,measurement,setting,value
Lentinan [reference compound],Ratio in % of joint swelling in experimental groups to joint swelling in control group,"[1]; Table 3, day 15 after adjuvant, every 3 days, single dose 1 mg/kg (NAC)2 and (NAC-OMe)2, 100 mg/kg NAC, 0.1 mg/kg lentinan",52%
same,Ratio in % of joint swelling in experimental groups to joint swelling in control group,"[1]; Table 4, intravenous",50%
same,Frequency (%) of onset of diabetes mellitus,[2],0%
same,"Frequency (%) of onset of diabetes mellitus, on age 18 weeks",[3]; saline 50,10%
same,"Frequency (%) of onset of diabetes mellitus, on age 22 weeks",[3]; saline 80,20%
same,Frequency (%) of onset of diabetes mellitus,[4],50%
same,"type of macrophages induced (GSH by monochlorobimane, ACAS)",[5],reductive macrophages were induced
same,IL-12 production,"IL-12; MΦ induced by intraperitoneal injection of the substance, stimulation with LPS and IFNγ","1,312 pg/ml"
same,"IL-12 production of substance-induced MΦ, without DEM or IL-4",IL-12; baseline values of the DEM and IL-4 experiments,828 pg/mL
